Results reported in PMC9127186, “Molecular Basis Underlying Hepatobiliary and Renal Excretion of Phenolic Acids of Salvia miltiorrhiza Roots (Danshen)” (Frontiers in Pharmacology, 2022).

How the values were obtained:
[1] = biological target: T1, human OAT1 (Homo sapiens, UniProt Q4U2R8); experiment: Cellular transport assay, HEK-293 cells expressing human OAT1; conditions: for K m: human renal basolateral uptake OAT1, 5 min incubation, concentrations in Table 1; for TransportTC/TransportMC ratio (net transport ratio): 10 min
T1 sequence (Q4U2R8 1-563): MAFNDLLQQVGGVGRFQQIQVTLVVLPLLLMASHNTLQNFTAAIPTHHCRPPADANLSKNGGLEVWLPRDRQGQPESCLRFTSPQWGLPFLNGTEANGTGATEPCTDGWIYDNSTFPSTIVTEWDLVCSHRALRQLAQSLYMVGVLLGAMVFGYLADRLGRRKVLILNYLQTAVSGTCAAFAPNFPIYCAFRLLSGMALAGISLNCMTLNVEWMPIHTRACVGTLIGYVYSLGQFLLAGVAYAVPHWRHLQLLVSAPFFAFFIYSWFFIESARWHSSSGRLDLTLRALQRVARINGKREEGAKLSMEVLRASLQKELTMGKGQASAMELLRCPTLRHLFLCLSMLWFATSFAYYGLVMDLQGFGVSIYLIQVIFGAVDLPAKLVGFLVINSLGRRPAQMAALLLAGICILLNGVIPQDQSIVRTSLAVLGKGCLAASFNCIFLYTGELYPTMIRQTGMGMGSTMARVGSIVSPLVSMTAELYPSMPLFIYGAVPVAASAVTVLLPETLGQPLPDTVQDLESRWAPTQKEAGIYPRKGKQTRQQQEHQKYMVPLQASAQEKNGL
Protocol: Briefly, HEK-293 cells were grown, at 37°C and 5% CO2, in Dulbecco’s modified Eagle’s medium, which was fortified with 10% fetal bovine serum, 1% minimal essential medium nonessential amino acids, and 1% antibiotic-antimycotic solution. A day before transfection, cells were seeded onto 24-well poly-D-lysine-coated plates at a density of 2 × 10^5 cells per well. After incubation at 37°C and 5% CO2 for 24 h, the expression plasmid and the empty vector were introduced separately into the HEK293 cells with Lipofectamine 2000 transfection reagent (Invitrogen, Carlsbad, CA, United States), according to the manufacturer’s protocol to yield transporter-expressing cells and mock cells, respectively.
Transport studies were performed 48 h after the transfection. […] Differential uptake between the transfected cells and mock cells was defined as net transport ratio (TransportTC/TransportMC ratio), where TransportTC and TransportMC are the transport rates of a test Danshen compound into transfected and mock cells, respectively. […] The determination was performed under linear uptake conditions by incubation for 5 min. Table 1 summarizes the final concentrations of the test Danshen compounds for different transporters. All the incubation samples were analyzed by liquid chromatography/mass spectrometry.
GraFit software (version 5.0; Erithacus Software Ltd, Surrey, United Kingdom) was used to determine the K m and V max values by nonlinear regression analysis of initial transport rates as a function of substrate concentration.

[2] = biological target: human MRP3 (Homo sapiens, UniProt O15438); experiment: Vesicular transport assay, inside-out membrane vesicles expressing human MRP3; conditions: 10 min
Protocol: (§1) Inside-out membrane vesicles (5 mg protein/mL), prepared from insect cells expressing human multidrug resistance-associated protein (MRP) 2, MRP3, MRP4, breast cancer resistance protein (BCRP), bile salt export pump (BSEP), and multidrug resistance protein (MDR) one and rat Mrp2, Mrp4, Bcrp, and Bsep, and vesicles (5 mg protein/mL; prepared from the insect cells expressing no ABC transporter; serving as negative control) were obtained from Genomembrane (Kanazawa, Japan).
(§2) The test Danshen compounds at 100 µM final concentration were separately incubated with the membrane vesicles for 10 min. Buffer C (50 mM MOPS-tris, 70 mM KCl, 7.5 mM MgCl2, pH 7.0) was used for preincubation and incubation, while buffer D (40 mM MOPS-tris, 70 mM KCl, pH 7.0) was used for vesicle washing. The transport rate (pmol/mg protein/min) of the test Danshen compound was calculated using Equation (2): Transport=(CV×VV)/T/WV (2) where C V, V V, T, and W V represent concentration of the compound in vesicular lysates supernatant (μM), volume of the lysates (μL), incubation time (10 min), and amount of vesicle protein amount per well (0.05 mg), respectively. Differential transport of the test Danshen compound between ATP-containing vesicles and AMP-containing vesicles was defined as net transport ratio (TransportATP/TransportAMP ratio). […] All the incubation samples were analyzed by liquid chromatography/mass spectrometry.

[3] = biological target: T2, human MRP4 (Homo sapiens, UniProt O15439); experiment: Vesicular transport assay, inside-out membrane vesicles expressing human MRP4; conditions: for TransportATP/TransportAMP ratio (net transport ratio): 10 min
T2 sequence (O15439 1-1325): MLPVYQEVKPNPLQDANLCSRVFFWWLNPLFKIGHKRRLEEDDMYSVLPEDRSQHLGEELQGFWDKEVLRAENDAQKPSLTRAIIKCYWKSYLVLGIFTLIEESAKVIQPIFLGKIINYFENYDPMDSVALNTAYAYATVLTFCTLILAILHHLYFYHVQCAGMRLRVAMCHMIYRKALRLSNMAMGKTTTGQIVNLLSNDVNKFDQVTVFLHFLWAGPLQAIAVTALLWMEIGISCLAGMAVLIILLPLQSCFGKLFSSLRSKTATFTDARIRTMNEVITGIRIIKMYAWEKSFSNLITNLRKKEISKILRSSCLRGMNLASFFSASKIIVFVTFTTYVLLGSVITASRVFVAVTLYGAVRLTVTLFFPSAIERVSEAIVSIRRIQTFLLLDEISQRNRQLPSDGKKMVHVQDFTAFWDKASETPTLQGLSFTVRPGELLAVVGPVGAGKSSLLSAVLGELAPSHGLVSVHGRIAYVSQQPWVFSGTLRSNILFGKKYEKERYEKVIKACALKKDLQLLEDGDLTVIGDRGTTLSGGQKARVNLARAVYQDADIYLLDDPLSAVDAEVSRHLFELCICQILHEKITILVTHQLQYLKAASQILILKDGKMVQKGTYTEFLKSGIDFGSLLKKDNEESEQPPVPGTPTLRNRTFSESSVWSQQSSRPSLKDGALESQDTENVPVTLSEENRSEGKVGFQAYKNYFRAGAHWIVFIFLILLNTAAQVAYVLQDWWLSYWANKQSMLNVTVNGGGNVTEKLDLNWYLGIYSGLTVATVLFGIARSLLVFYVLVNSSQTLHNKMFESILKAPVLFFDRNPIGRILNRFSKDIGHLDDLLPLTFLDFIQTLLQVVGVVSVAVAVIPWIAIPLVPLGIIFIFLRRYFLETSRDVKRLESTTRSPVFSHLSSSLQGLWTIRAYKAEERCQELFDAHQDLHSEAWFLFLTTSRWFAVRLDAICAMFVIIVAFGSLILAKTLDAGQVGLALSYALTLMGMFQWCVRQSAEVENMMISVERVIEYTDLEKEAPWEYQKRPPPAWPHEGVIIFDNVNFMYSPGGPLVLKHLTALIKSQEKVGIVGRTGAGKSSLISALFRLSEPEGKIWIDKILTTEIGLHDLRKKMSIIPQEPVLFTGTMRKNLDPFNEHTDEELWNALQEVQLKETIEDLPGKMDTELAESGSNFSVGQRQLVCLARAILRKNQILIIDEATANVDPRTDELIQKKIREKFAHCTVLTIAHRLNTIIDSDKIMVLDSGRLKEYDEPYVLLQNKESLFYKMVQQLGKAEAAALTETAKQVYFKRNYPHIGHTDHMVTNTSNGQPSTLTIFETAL
Protocol: as §1, §2

[4] = Danshen phenolic acid at 100 μM final concentration, human MRP3 vesicles
[5] = Danshen phenolic acid at 100 μM final concentration, human MRP4 vesicles
[6] = Danshen phenolic acid at 100 μM final concentration, human OAT1-transfected vs mock cells

Chain of human MRP3 (O15438 whole entry): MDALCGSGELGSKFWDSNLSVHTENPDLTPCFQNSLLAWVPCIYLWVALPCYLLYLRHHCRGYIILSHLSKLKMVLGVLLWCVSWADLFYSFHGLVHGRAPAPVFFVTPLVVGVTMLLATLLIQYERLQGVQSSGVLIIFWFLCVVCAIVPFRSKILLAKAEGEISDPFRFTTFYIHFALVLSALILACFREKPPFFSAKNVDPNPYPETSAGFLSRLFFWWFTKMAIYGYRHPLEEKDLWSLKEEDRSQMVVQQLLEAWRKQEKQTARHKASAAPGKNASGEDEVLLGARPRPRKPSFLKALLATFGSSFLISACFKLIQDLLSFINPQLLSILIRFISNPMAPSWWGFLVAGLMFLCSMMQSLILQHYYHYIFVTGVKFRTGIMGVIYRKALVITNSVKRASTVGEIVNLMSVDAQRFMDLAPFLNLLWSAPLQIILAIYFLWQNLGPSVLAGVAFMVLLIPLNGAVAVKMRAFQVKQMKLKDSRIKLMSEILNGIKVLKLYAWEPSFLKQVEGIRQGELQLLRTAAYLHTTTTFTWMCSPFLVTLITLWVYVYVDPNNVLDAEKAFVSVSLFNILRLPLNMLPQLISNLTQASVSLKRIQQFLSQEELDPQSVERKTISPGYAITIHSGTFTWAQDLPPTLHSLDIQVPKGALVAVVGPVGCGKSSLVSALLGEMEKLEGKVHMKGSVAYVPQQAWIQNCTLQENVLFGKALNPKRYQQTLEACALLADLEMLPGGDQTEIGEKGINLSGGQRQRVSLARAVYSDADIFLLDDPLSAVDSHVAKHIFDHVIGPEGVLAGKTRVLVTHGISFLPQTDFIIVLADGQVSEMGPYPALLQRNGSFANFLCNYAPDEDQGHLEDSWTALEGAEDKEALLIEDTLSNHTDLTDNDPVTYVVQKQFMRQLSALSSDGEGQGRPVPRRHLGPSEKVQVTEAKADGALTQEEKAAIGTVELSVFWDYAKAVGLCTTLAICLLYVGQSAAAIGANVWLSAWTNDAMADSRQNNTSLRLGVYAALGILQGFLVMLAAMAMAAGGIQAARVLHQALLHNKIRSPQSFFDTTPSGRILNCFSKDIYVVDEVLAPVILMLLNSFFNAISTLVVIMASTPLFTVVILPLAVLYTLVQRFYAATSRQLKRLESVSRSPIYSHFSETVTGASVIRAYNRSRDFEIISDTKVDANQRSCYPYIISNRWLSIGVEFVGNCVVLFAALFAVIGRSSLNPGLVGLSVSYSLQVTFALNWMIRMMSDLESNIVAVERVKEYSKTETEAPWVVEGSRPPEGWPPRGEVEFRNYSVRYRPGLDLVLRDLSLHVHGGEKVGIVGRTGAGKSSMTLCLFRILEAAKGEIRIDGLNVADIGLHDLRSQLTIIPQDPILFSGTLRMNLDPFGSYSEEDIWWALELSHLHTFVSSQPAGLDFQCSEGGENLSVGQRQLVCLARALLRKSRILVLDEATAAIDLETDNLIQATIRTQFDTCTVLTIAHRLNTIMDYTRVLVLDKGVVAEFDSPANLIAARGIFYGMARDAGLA

| Compound | K m [1] | microsomal CLint ([1]; human, other cell line) | TransportATP/TransportAMP ratio (net transport ratio) ([2]; human, 100 μM, pH 7) | TransportATP/TransportAMP ratio (net transport ratio) ([3]; human, 100 μM, pH 7) | substrate of human OAT1 [1] | TransportTC/TransportMC ratio (net transport ratio) ([1]; human, 100 μM) | TransportATP/TransportAMP ratio (net transport ratio) [2, 4] | TransportATP/TransportAMP ratio (net transport ratio) [3, 5] | TransportTC/TransportMC ratio (net transport ratio) [1, 6] | microsomal CLint ([1]; human) | substrate of human MRP4 [3] |
| --- | --- | --- | --- | --- | --- | --- | --- | --- | --- | --- | --- |
| O=C(O)C(O)Cc1ccc(O)c(O)c1 (stereo not drawn) [Tanshinol, tanshinol] | 98.9 ± 7.1 µM | 10.5 µL/min/mg |  |  |  |  |  |  |  |  |  |
| O=C(/C=C/c1ccc(O)c(O)c1)O[C@H](Cc1ccc(O)c(O)c1)C(=O)O [Rosmarinic acid, rosmarinic acid] | 70.8 ± 6.4 µM | 2.55 µL/min/mg | 1.38 ± 0.01 | 1.99 ± 0.08 | substrates | 46.8 ± 10.9 |  |  |  |  |  |
| O=C(O)c1ccc(O)c(O)c1 [Protocatechuic acid, protocatechuic acid] | 37.6 ± 2.5 µM |  |  |  | substrates |  | 1.25 ± 0.08 | 1.25 ± 0.14 | 53.1 ± 3.9 | 6.43 µL/min/mg |  |
| O=C(/C=C/c1ccc(O)c(O)c1/C=C/c1ccc(O)c(O)c1)O[C@H](Cc1ccc(O)c(O)c1)C(=O)O [Salvianolic acid A, salvianolic acid A] |  |  | 1.54 ± 0.23 | 1.56 ± 0.05 |  | 1.02 ± 0.14 |  |  |  |  |  |
| O=C(O)Cc1c(/C=C/C(=O)O[C@H](Cc2ccc(O)c(O)c2)C(=O)O)ccc(O)c1O [Salvianolic acid D, salvianolic acid D] | 18.1 ± 2.3 µM |  |  |  | substrates |  | 1.35 ± 0.30 | 5.27 ± 0.51 | 11.7 ± 2.4 | 2.08 µL/min/mg | substrate |
| salvianolic acid B |  |  |  |  |  |  | 1.47 ± 0.33 | 1.99 ± 0.06 | 1.21 ± 0.14 |  |  |
| O=C(/C=C/c1ccc(O)c2c1[C@H](C(=O)O)[C@@H](c1ccc(O)c(O)c1)O2)O[C@H](Cc1ccc(O)c(O)c1)C(=O)O [Lithospermic acid, lithospermic acid] |  |  |  |  |  |  | 1.72 ± 0.28 | 1.36 ± 0.14 | 2.09 ± 0.89 |  |  |
